Reference: PubChem BioAssay AID250 (DTP/NCI, 2004)
Several values for one entry are separate records, joined by “and”; a condition that tells them apart may be missing. Identical values can stand only once. Inconclusive results and toxic doses are left out.

Tested on: BDF1 mice, L1210 leukemia sc, survival T/C
Test: NCI In Vivo Anticancer Drug Screen. Data for tumor model L1210 Leukemia (subcutaneous) in B6D2F1 (BDF1) mice
Conditions: higher = longer survival
Procedure, shortened: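 Transplantable tumor-bearing mice; survival or tumor size recorded; result = T/C, treated vs vehicle control.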

[1] = endpoint: median survival time, dose: 108.0 mg/kg/injection, schedule: Q01DX Z (sc), vehicle: methylcellulose (MC)
[2] = endpoint: median survival time, dose: 180.0 mg/kg/injection, schedule: Q01DX Z (sc), vehicle: methylcellulose (MC)
[3] = endpoint: median survival time, dose: 300.0 mg/kg/injection, schedule: Q01DX Z (sc), vehicle: methylcellulose (MC)
[4] = endpoint: median survival time, dose: 500.0 mg/kg/injection, schedule: Q01DX Z (sc), vehicle: methylcellulose (MC)
[5] = endpoint: median survival time, dose: 833.0 mg/kg/injection, schedule: Q01DX Z (sc), vehicle: methylcellulose (MC)
[6] = endpoint: median survival time, dose: 65.0 mg/kg/injection, schedule: Q01DX Z (sc), vehicle: saline
[7] = endpoint: median survival time, dose: 180.0 mg/kg/injection, schedule: Q01DX Z (sc), vehicle: saline
[8] = endpoint: median survival time, dose: 300.0 mg/kg/injection, schedule: Q01DX Z (sc), vehicle: saline
[9] = endpoint: median survival time, dose: 39.0 mg/kg/injection, schedule: Q01DX Z (sc), vehicle: saline
[10] = endpoint: median survival time, dose: 0.65 mg/kg/injection, schedule: Q01DX Z (sc), vehicle: saline
[11] = endpoint: median survival time, dose: 1.08 mg/kg/injection, schedule: Q01DX Z (sc), vehicle: saline
[12] = endpoint: median survival time, dose: 1.8 mg/kg/injection, schedule: Q01DX Z (sc), vehicle: saline
[13] = endpoint: median survival time, dose: 5.0 mg/kg/injection, schedule: Q01DX Z (sc), vehicle: saline
[14] = endpoint: median survival time, dose: 8.4 mg/kg/injection, schedule: Q01DX Z (sc), vehicle: saline
[15] = endpoint: median survival time, dose: 14.0 mg/kg/injection, schedule: Q01DX Z (sc), vehicle: saline
[16] = endpoint: median survival time, dose: 23.0 mg/kg/injection, schedule: Q01DX Z (sc), vehicle: saline
[17] = endpoint: median survival time, dose: 3.0 mg/kg/injection, schedule: Q01DX Z (sc), vehicle: saline

## CCSc1nc(Cl)cc(Sc2nc(N)nc3nc[nH]c23)n1
endpoint: median survival time, dose: 97.5 mg/kg/injection, schedule: Q01DX Z (sc), vehicle: methylcellulose (MC)
  T/C: 100 % of control
endpoint: median survival time, dose: 156.0 mg/kg/injection, schedule: Q01DX Z (sc), vehicle: methylcellulose (MC)
  T/C: 100 % of control
endpoint: median survival time, dose: 250.0 mg/kg/injection, schedule: Q01DX Z (sc), vehicle: methylcellulose (MC)
  T/C: 100 % of control
endpoint: median survival time, dose: 400.0 mg/kg/injection, schedule: Q01DX Z (sc), vehicle: methylcellulose (MC)
  T/C: 100 % of control
endpoint: median survival time, dose: 640.0 mg/kg/injection, schedule: Q01DX Z (sc), vehicle: methylcellulose (MC)
  T/C: 95 % of control

## Cn1c(N)nc2nc[nH]c2c1=S
endpoint: median survival time, dose: 65.0 mg/kg/injection, schedule: Q01DX Z (sc), vehicle: methylcellulose (MC)
  T/C: 100 % of control
[1]
  T/C: 100 % of control
[2]
  T/C: 100 % of control and 105 % of control
[3]
  T/C: 100 % of control
[4]
  T/C: 100 % of control and 105 % of control
[5]
  T/C: 110 % of control

## CCN(CC)C(=O)c1cccnc1
endpoint: median survival time, dose: 28.0 mg/kg/injection, schedule: Q01DX Z (sc), vehicle: water
  T/C: 109 % of control
endpoint: median survival time, dose: 46.7 mg/kg/injection, schedule: Q01DX Z (sc), vehicle: water
  T/C: 100 % of control
endpoint: median survival time, dose: 77.8 mg/kg/injection, schedule: Q01DX Z (sc), vehicle: water
  T/C: 100 % of control
endpoint: median survival time, dose: 130.0 mg/kg/injection, schedule: Q01DX Z (sc), vehicle: water
  T/C: 100 % of control
endpoint: median survival time, dose: 216.0 mg/kg/injection, schedule: Q01DX Z (sc), vehicle: water
  T/C: 100 % of control

## O=C(O)c1cc(=O)[nH]c(=O)[nH]1
[6]
  T/C: 100 % of control
[7]
  T/C: 100 % of control
[8]
  T/C: 100 % of control

## O=C1OC(C(O)CO)C(O)=C1O (stereo not given)
endpoint: mean survival time, dose: 0.2 mg/kg/injection, schedule: Q08HX010 (ip), vehicle: other
  T/C: 91 % of control
endpoint: mean survival time, dose: 0.25 mg/kg/injection, schedule: Q08HX010 (ip), vehicle: other
  T/C: 95 % of control
endpoint: mean survival time, dose: 0.3 mg/kg/injection, schedule: Q08HX010 (ip), vehicle: other
  T/C: 93 % of control
endpoint: mean survival time, dose: 0.5 mg/kg/injection, schedule: Q08HX010 (ip), vehicle: other
  T/C: 84 % of control

## CSc1ncnc2nc[nH]c12
endpoint: median survival time, dose: 38.9 mg/kg/injection, schedule: Q01DX Z (sc), vehicle: methylcellulose (MC)
  T/C: 95 % of control
endpoint: median survival time, dose: 64.8 mg/kg/injection, schedule: Q01DX Z (sc), vehicle: methylcellulose (MC)
  T/C: 105 % of control
[1]
  T/C: 110 % of control
[2]
  T/C: 100 % of control

## CCOC(=O)NP(=O)(N1CC1)N1CC1
endpoint: median survival time, dose: 5.0 mg/kg/injection, schedule: Q01DX Z (sc), vehicle: water
  T/C: 120 % of control
endpoint: median survival time, dose: 14.0 mg/kg/injection, schedule: Q01DX Z (sc), vehicle: water
  T/C: 150 % of control
endpoint: median survival time, dose: 23.0 mg/kg/injection, schedule: Q02DX Z (sc), vehicle: water
  T/C: 170 % of control
endpoint: median survival time, dose: 23.0 mg/kg/injection, schedule: Q## X Z (sc), vehicle: water
  T/C: 165 % of control
endpoint: median survival time, dose: 39.0 mg/kg/injection, schedule: Q01DX001 (sc), vehicle: water
  T/C: 160 % of control
endpoint: median survival time, dose: 39.0 mg/kg/injection, schedule: Q07DX Z (sc), vehicle: water
  T/C: 150 % of control

## CC(CNC(=O)CCOS(C)(=O)=O)NC(=O)CCOS(C)(=O)=O (stereo not given)
[1]
  T/C: 105 % of control
endpoint: median survival time, dose: 180.0 mg/kg/injection, schedule: Q01DX Z (sc), vehicle: carboxymethylcellulose (CMC)
  T/C: 175 % of control
[2]
  T/C: 115 % of control
endpoint: median survival time, dose: 300.0 mg/kg/injection, schedule: Q01DX Z (sc), vehicle: carboxymethylcellulose (CMC)
  T/C: 150 % of control
[3]
  T/C: 120 % of control
[4]
  T/C: 120 % of control
endpoint: median survival time, dose: 833.0 mg/kg/injection, schedule: Q01DX Z (sc), vehicle: carboxymethylcellulose (CMC)
  T/C: 110 % of control
[5]
  T/C: 110 % of control

## O=c1[nH]c(=O)n(C2OC(CO)C(O)C2O)cc1Br (stereo not given)
[9]
  T/C: 100 % of control
[6]
  T/C: 100 % of control
endpoint: median survival time, dose: 108.0 mg/kg/injection, schedule: Q01DX Z (sc), vehicle: saline
  T/C: 100 % of control
[7]
  T/C: 94 % of control and 100 % of control
[8]
  T/C: 100 % of control and 105 % of control
endpoint: median survival time, dose: 500.0 mg/kg/injection, schedule: Q01DX Z (sc), vehicle: saline
  T/C: 94 % of control and 100 % of control
endpoint: median survival time, dose: 833.0 mg/kg/injection, schedule: Q01DX Z (sc), vehicle: saline
  T/C: 105 % of control
endpoint: median survival time, dose: 1388.0 mg/kg/injection, schedule: Q01DX Z (sc), vehicle: saline
  T/C: 94 % of control

## C=CC(O)CN1CC1 (stereo not given)
[10]
  T/C: 100 % of control
[11]
  T/C: 100 % of control
endpoint: median survival time, dose: 1.7 mg/kg/injection, schedule: Q01DX Z (sc), vehicle: saline
  T/C: 100 % of control
[12]
  T/C: 100 % of control
endpoint: median survival time, dose: 2.8 mg/kg/injection, schedule: Q01DX Z (sc), vehicle: saline
  T/C: 111 % of control
endpoint: median survival time, dose: 3.0 mg/kg/injection, schedule: Q02DX Z (sc), vehicle: saline
  T/C: 104 % of control
endpoint: median survival time, dose: 4.7 mg/kg/injection, schedule: Q01DX Z (sc), vehicle: saline
  T/C: 160 % of control
[13]
  T/C: 155 % of control and 159 % of control and 163 % of control
endpoint: median survival time, dose: 5.0 mg/kg/injection, schedule: Q02DX Z (sc), vehicle: saline
  T/C: 118 % of control
endpoint: median survival time, dose: 7.8 mg/kg/injection, schedule: Q01DX Z (sc), vehicle: saline
  T/C: 170 % of control and 177 % of control
[14]
  T/C: 122 % of control
endpoint: median survival time, dose: 8.4 mg/kg/injection, schedule: Q## X Z (sc), vehicle: saline
  T/C: 109 % of control
[15]
  T/C: 113 % of control
endpoint: median survival time, dose: 14.0 mg/kg/injection, schedule: Q02DX Z (sc), vehicle: saline
  T/C: 181 % of control
endpoint: median survival time, dose: 14.0 mg/kg/injection, schedule: Q## X Z (sc), vehicle: saline
  T/C: 118 % of control
endpoint: median survival time, dose: 21.6 mg/kg/injection, schedule: Q01DX Z (sc), vehicle: saline
  T/C: 110 % of control
[16]
  T/C: 100 % of control
endpoint: median survival time, dose: 23.0 mg/kg/injection, schedule: Q02DX Z (sc), vehicle: saline
  T/C: 150 % of control
endpoint: median survival time, dose: 23.0 mg/kg/injection, schedule: Q## X Z (sc), vehicle: saline
  T/C: 154 % of control
endpoint: median survival time, dose: 36.0 mg/kg/injection, schedule: Q01DX Z (sc), vehicle: saline
  T/C: 111 % of control
endpoint: median survival time, dose: 39.0 mg/kg/injection, schedule: Q## X Z (sc), vehicle: saline
  T/C: 159 % of control
endpoint: median survival time, dose: 60.0 mg/kg/injection, schedule: Q01DX Z (sc), vehicle: saline
  T/C: 100 % of control
endpoint: median survival time, dose: 65.0 mg/kg/injection, schedule: Q01DX001 (sc), vehicle: saline
  T/C: 118 % of control
endpoint: median survival time, dose: 65.0 mg/kg/injection, schedule: Q02DX Z (sc), vehicle: saline
  T/C: 104 % of control
endpoint: median survival time, dose: 65.0 mg/kg/injection, schedule: Q## X Z (sc), vehicle: saline
  T/C: 109 % of control

## NC(=O)N(CCCl)N=O
endpoint: median survival time, dose: 0.39 mg/kg/injection, schedule: Q01DX Z (sc), vehicle: methylcellulose (MC)
  T/C: 123 % of control
endpoint: median survival time, dose: 0.65 mg/kg/injection, schedule: Q01DX Z (sc), vehicle: methylcellulose (MC)
  T/C: 123 % of control
[10]
  T/C: 168 % of control
endpoint: median survival time, dose: 1.08 mg/kg/injection, schedule: Q01DX Z (sc), vehicle: methylcellulose (MC)
  T/C: 247 % of control
[11]
  T/C: 273 % of control
endpoint: median survival time, dose: 1.8 mg/kg/injection, schedule: Q01DX Z (sc), vehicle: methylcellulose (MC)
  T/C: 300 % of control
[12]
  T/C: 420 % of control and 526 % of control
endpoint: median survival time, dose: 3.0 mg/kg/injection, schedule: Q01DX Z (sc), vehicle: methylcellulose (MC)
  T/C: 309 % of control
[17]
  T/C: 365 % of control and 463 % of control
endpoint: median survival time, dose: 5.0 mg/kg/injection, schedule: Q01DX001 (sc), vehicle: saline
  T/C: 157 % of control
[13]
  T/C: 270 % of control and 310 % of control
endpoint: median survival time, dose: 5.0 mg/kg/injection, schedule: Q07DX Z (sc), vehicle: saline
  T/C: 200 % of control
endpoint: median survival time, dose: 8.4 mg/kg/injection, schedule: Q01DX001 (sc), vehicle: saline
  T/C: 178 % of control
[14]
  T/C: 170 % of control
endpoint: median survival time, dose: 8.4 mg/kg/injection, schedule: Q07DX Z (sc), vehicle: saline
  T/C: 289 % of control
endpoint: median survival time, dose: 14.0 mg/kg/injection, schedule: Q01DX001 (sc), vehicle: saline
  T/C: 178 % of control
[15]
  T/C: 120 % of control
endpoint: median survival time, dose: 14.0 mg/kg/injection, schedule: Q07DX Z (sc), vehicle: saline
  T/C: 257 % of control
[16]
  T/C: 110 % of control
endpoint: median survival time, dose: 23.0 mg/kg/injection, schedule: Q07DX Z (sc), vehicle: saline
  T/C: 152 % of control

## CN=C(NC)c1ccc(NC(=O)Nc2ccc(NC(=O)Nc3ccc(C(=NC)NC)cc3)cc2)cc1
[17]
  T/C: 100 % of control
[13]
  T/C: 105 % of control
[14]
  T/C: 100 % of control
[15]
  T/C: 105 % of control
[9]
  T/C: 115 % of control
[6]
  T/C: 110 % of control
